Laboratory results taken from patent US20110160303A1, “N-ALKYLCARBONYL-AMINO ACID ESTER AND N-ALKYLCARBONYL-AMINO LACTONE COMPOUNDS AND THEIR USE” (Edward Tak WEI, priority 2005, published 2011).

Key:
[1] = Octanol/water partition coefficient; format: physicochemical
Method: The octanol/water partition coefficients (given in log P units) for a number of compounds were determined and are shown in Table 7, together with the threshold for cooling on the tongue tested at 40 mM. […] A longer duration of action was not precisely matched with log P values.

[2] = system: skin above the upper lip; test: Cooling sensation on facial skin, ointment applied to skin above the upper lip; format: in vivo, human; settings: skin above upper lip; for Duration of Skin Cooling: 40 mM (1% wt/vol) ointment; for Duration of Action On-Off (minutes): duration (offset minus onset) / Duration of Action On-Off (minutes): Off (offset): 40 mM Aquaphor ointment; for Duration of Action On-Off (minutes): On (onset): 40 mM (~1% wt/vol) Aquaphor ointment, 40 to 70 mg, time to reach 2 units of coolness; for Duration of Action On-Off (minutes): Off (offset): time when coolness drops below 2 units
From the text: A reliable place for topical application is the skin above the upper lip (above the vermilion border of the lips), on the philtrum, lateral to the philtrum until the nasolabial folds, and on the lower nostrils (subnasale). This part of the face is known to be densely innervated with cold receptors, second only to the surfaces of the eyeball and anogenitalia. A second location is on or below the malar eminence (cheekbone). The skin above the cheekbone is thicker than above the lips, and therefore has a higher threshold for activation. At both loci, tingling, cool and cold sensations in the skin may be experienced and rated for time of onset and intensity.
The intensity of the subjective skin sensation is rated as 0, 1, 2 or 3 with: 0 as no change; 1 as slight coolness, cold, or tingling; 2 as clear-cut signal of coolness, cold, or tingling; and 3 as robust cooling or cold. The intervals for recording sensations are 5 to 10 minutes, until two successive zeroes are obtained. The results (shown in FIGS. 1 and 2) are averaged values of 4 to 6 separate trials in the same individual. The data are plotted using SigmaPlot® (Systat Software, Point Richmond Calif.) and a smoothing function with a negative exponential was used for analysis and statistical fit of the results. Confirmatory trials of cooling action of the long-acting NACE compounds were obtained in 2 to 4 individuals but not quantified for some because of the large number of chemicals that were evaluated.
The onset of drug action is taken as the time to reach 2 units of coolness intensity, and offset of drug action is the time when coolness intensity drops below 2, after previously surpassing 2 units. The duration of cooling action is defined as the offset time minus the onset time. […] The quality of the sensation is noted, for example, as pure refreshing coolness, or if the sensation is accompanied by irritation (stinging or burning). The quality of the sensation is not rated for intensity.
For bioassay on the skin, approximately 30 mg was stirred and dissolved in 3 g of warm liquid Aquaphor® ointment to a yield a 40 mM (˜1% wt/vol) ointment. The exact amount was adjusted so that the molar equivalent was about 35 to 40 mM. After cooling, 40 to 70 mg of the solid ointment was placed on the tip of a plastic stick and applied to the skin above the upper lip, on the philtrum, and lateral to the philtrum, up to the nasolabial folds, of test subjects and the onset and duration of cooling sensations noted.
The intensity of the subjective skin sensation was rated as 0, 1, 2 or 3 with: 0 as no change; 1 as slight coolness, cold, or tingling; 2 as clear signal of coolness, cold, or tingling; and 3 as robust cooling or cold. The intervals for recording sensations were 5 to 10 minutes, until two successive zeroes were obtained. The results (shown in FIGS. 1 and 2) are averaged values of 4 to 6 separate trials in the same individual. The data are plotted using SigmaPlot® (Systat Software, Point Richmond, Calif., USA) and a smoothing function with a negative exponential was used for analysis and statistical fit of the results.
The onset of drug action was taken as the time to reach 2 units of coolness intensity, and offset of drug action was the time when coolness intensity drops below 2, after previously surpassing 2 units. The duration of cooling action was defined as the offset time minus the onset time. […] The quality of the sensation was also noted: such as pure refreshing coolness, or if the sensation was accompanied by irritation (stinging or burning). The quality of the sensation was not rated for intensity.
Test compounds were singly applied to the skin above the upper lips at a 40 to 70 mg dose of a 1% wt/vol ointment.

[3] = system: tongue; test: Threshold for cooling on the tongue; format: in vivo, human; settings: threshold for cooling on the tongue
Method: Watson et al. (U.S. Pat. No. 4,178,459) tested the properties of N-substituted p-menthane carboxamides on volunteers by putting filter paper (1×1 cm), impregnated with a known amount of compound, onto the dorsal surface of the tongue of the test subject. After 30 seconds, the subject was required to report presence or absence of a cooling effect. […] The average threshold of (−)-menthol for 6 subjects was 0.25 μg, but there was a 100-fold variation in individual sensitivity. As noted above, coolness signals detected from the dorsal surface of the tongue may be confounded by gustatory, olfactory, and other variables, as well as by dilution from saliva. The octanol/water partition coefficients (given in log P units) for a number of compounds were determined and are shown in Table 7, together with the threshold for cooling on the tongue tested at 40 mM. […] A longer duration of action was not precisely matched with log P values.

Row | SMILES | Log P [1] | Duration of Skin Cooling [2] | Duration of Action On-Off (minutes): duration (offset minus onset) [2] | Duration of Action On-Off (minutes): On (onset) [2] | Duration of Action On-Off (minutes): Off (offset) [2] | Threshold tongue [3] | logP [1]
1 | CCOc1ccc(NC(=O)C2CC(C)CCC2C(C)C)cc1 (stereo not drawn) [CPS-306] | 5.8 | not active | inactive | – | – | – | –
2 | CCCCOc1ccc(NC(=O)C2CC(C)CCC2C(C)C)cc1 (stereo not drawn) [CPS-308] | 6.9 | not active | inactive | – | – | – | –
3 | COc1ccc(NC(=O)C2CC(C)CCC2C(C)C)c(OC)c1 (stereo not drawn) [CPS-309] | 5.0 | 0.6 h | 37 min | 13 min | 50 min | – | –
4 | CCCOc1ccc(NC(=O)C2CC(C)CCC2C(C)C)cc1 (stereo not drawn) [CPS-310] | 6.3 | not active | inactive | – | – | – | –
5 | COC(=O)CCC(NC(=O)C1CC(C)CCC1C(C)C)C(=O)OC (stereo not drawn) [Glu(OMe) Me Ester] | 2.2 | not active | not active | – | – | – | –
6 | COC(=O)CNC(=O)C1CC(C)CCC1C(C)C (stereo not drawn) [Gly Me Ester (WS-31), reference compound] | 2.4 | 0.3 h | 20 min | 5 min | 25 min | 0.6 µg | –
7 | CCOC(=O)C(C)NC(=O)C1CC(C)CCC1C(C)C [L-Ala Et Ester] | 3.1 | 0.7 h | 44 min | 8 min | 52 min | 0.4 µg | –
8 | COC(=O)C(C)NC(=O)C1CC(C)CCC1C(C)C [L-Ala Me Ester] | 2.8 | 1.3 h | 79 min | 1 min | 80 min | 0.6 µg | –
9 | COC(=O)C(NC(=O)C1CC(C)CCC1C(C)C)C(C)C [L-Val Me Ester] | 4.2 | not active | not active | – | – | – | –
10 | COC(=O)C1CCCN1C(=O)[C@@H]1C[C@H](C)CC[C@H]1C(C)C (stereo partly drawn) [Pro Me Ester] | – | not active | not active | – | – | – | 3.3
11 | CC1CCC(C(C)C)C(C(=O)NC(C)C)C1 (stereo not drawn) [WS-10, reference compound] | 4.1 | 0.3 h | 19 min | 6 min | 25 min | 0.4 µg | –
12 | CCC(C)NC(=O)C1CC(C)CCC1C(C)C (stereo not drawn) [WS-34, reference compound] | 4.6 | not active | inactive | – | – | 0.7 µg | –
